Tests used:
[1] = tested on: Wnt signaling pathway, TCF/LEF reporter-HEK293 Recombinant cell lines; experiment: Wnt signaling pathway activation in HEK293 cells (TCF/LEF reporter, luciferase); assay type: cell-based; conditions: Homo sapiens, incubated overnight, read-out: Potency
Method: Assay: Wnt Signaling Pathway Activation in HEK293 Cells. Materials:
TCF/LEF reporter-HEK293 Recombinant cell lines
One-Step Luciferase Assay System
The assay was performed using TCF/LEF reporter-HEK293 Recombinant cell lines
Plate 32,000 TCF/LEF reporter-HEK293 Recombinant cells/well in a 96-well plate (volume=90 μL). The compounds were diluted in the thawing medium 1 containing 1% DMSO, and add 10 μL to each well (0.1% DMSO at final). The cells were incubated for overnight at 37° C. in 5% CO2 followed by adding 100 μL of One-Step Luciferase Assay System to each well. Plate was incubated for 30 min at room temperature in a darkroom.
Luminescence signal was measured using a BioTek Synergy 2 microplate reader.
Wnt signaling pathway activation assays were performed in triplicates at each concentration. The luminescence data were analyzed using the computer software, Graphpad Prism. The luminescence intensity in the absence of Compounds (Luc) was defined the minimum activity and the signal in the presence of the highest concentration of the Compound was defined as the maximum activity. Signal from the wells containing medium only was defined as background. […]

[2] = tested on: Lgr5-positive cells; experiment: Expansion of Lgr5-positive cochlear cells from Lgr5-EGFP-IRES-Cre-ER mice (flow cytometry for Lgr5-GFP); assay type: cell-based, mouse; conditions: 10 days (D10) in culture; for Potency: Lgr5-positive cell expansion; for % of Cells: percentage of GFP-positive (Lgr5-GFP) cells
Method: Lgr5-EGFP-IRES-Cre-ER mice (Barker et al., 2007) (http://jaxmice.jax.org/strain/008875.html) are used to analyze the effects of small molecules on cochlear stem cell expansion.
Isolation of stem cells from the inner ear: All animal studies are conducted under an approved institutional protocol according to National Institutes of Health guidelines. For experiments with neonatal mice (postnatal days 1-3), the cochleae are dissected in HBSS and the organ of Corti are separated from the stria vascularis and the modiolus. The organs of Corti are then treated with Cell Recovery Solution (Corning) for 1 h to separate cochlear epithelium from the underlying mesenchyme. Epithelia are then collected and treated with TrypLE (Life Technologies) for 15-20 minutes at 37° C. Single cells obtained by mechanical trituration are filtered (40 μm) and suspended in Matrigel (Corning) for 3D culture.
Cells are cultured in a 1:1 mixture of DMEM and F12, supplemented with Glutamax (GIBCO), N2, B27 (Invitrogen), EGF (50 ng/ml; Chemicon), bFGF (50 ng/ml; Chemicon), IGF1 (50 ng/ml; Chemicon) and the composition provided herein. Media are changed every other day.
Lgr5-positive cells are quantified after 10 days (D10) in culture in multiple conditions. Cell colonies are dissociated into single cells using TrypLE (Gibco). The cells are then stained with propidium iodide (PI) and are analyzed using a flow cytometer for Lgr5-GFP expression. The number of GFP-positive cells and the percentage of GFP-positive cells are quantified.
Atoh1-nGFP-positive cells are quantified at day 0 (D0) and day 10 (D10) of differentiation treatment to determine the number of hair cells that have differentiated. Cell colonies are incubated in Cell Recovery Solution to release the colonies from Matrigel and dissociated into single cells using TrypLE. The total number and percentage of GFP-positive cells are quantified using a flow cytometer for multiple culture conditions. ANOVA is used to compare means across conditions, and the two-tailed Student's T-test is used to compare each condition to the treatment with the highest yield.

[3] = target: recombinant human GSK3β (Homo sapiens, UniProt P49841); experiment: In vitro enzymatic assay for inhibition of GSK3β (Kinase-Glo Max luminescence); assay type: biochemical; conditions: 10 uM ATP, 0.1 mg/ml GSKtide, 30° C. for 40 minutes; read-out: Potency GSK-3beta
Method: (§1) Enzymatic activities using recombinant human GSK3 using an in vitro enzymatic assay for inhibition GSK3α and GSK3β.
(§2) The assay was performed using Kinase-Glo Max luminescence kinase assay kit (Promega). It measures kinase activity by quantitating the amount of ATP remaining in solution following a kinase reaction. The luminescent signal from the assay is correlated with the amount of ATP present and is inversely correlated with the amount of kinase activity. The compounds were diluted in 10% DMSO and 5 μl of the dilution was added to a 50 μl reaction so that the final concentration of DMSO is 1% in all of reactions. The enzymatic reactions were conducted at 30° C. for 40 minutes. The 50 μl reaction mixture contains 40 mM Tris, pH 7.4, 10 mM MgCl2, 0.1 mg/ml BSA, 2 mM DTT, 0.1 mg/ml GSKtide substrate, 10 uM ATP and GSK3. After the enzymatic reaction, 50 μl of Kinase-Glo Max Luminescence kinase assay solution (Promega) was added to each reaction and incubate the plate for 15 minutes at room temperature. Luminescence signal was measured using a BioTek Synergy 2 microplate reader.
(§3) Kinase activity assays were performed in duplicate at each concentration. The luminescence data were analyzed using the computer software, Graphpad Prism. The difference between luminescence intensities in the absence of Kinase (Lut) and in the presence of Kinase (Luc) was defined as 100% activity (Lut−Luc). […]

[4] = target: recombinant human GSK3α (Homo sapiens, UniProt P49840); experiment: In vitro enzymatic assay for inhibition of GSK3α (Kinase-Glo Max luminescence); assay type: biochemical; conditions: 10 uM ATP, 0.1 mg/ml GSKtide, 30° C. for 40 minutes; read-out: Potency GSK-3alpha
Method: as §1, §2, §3

Chain of recombinant human GSK3α (P49840 whole entry): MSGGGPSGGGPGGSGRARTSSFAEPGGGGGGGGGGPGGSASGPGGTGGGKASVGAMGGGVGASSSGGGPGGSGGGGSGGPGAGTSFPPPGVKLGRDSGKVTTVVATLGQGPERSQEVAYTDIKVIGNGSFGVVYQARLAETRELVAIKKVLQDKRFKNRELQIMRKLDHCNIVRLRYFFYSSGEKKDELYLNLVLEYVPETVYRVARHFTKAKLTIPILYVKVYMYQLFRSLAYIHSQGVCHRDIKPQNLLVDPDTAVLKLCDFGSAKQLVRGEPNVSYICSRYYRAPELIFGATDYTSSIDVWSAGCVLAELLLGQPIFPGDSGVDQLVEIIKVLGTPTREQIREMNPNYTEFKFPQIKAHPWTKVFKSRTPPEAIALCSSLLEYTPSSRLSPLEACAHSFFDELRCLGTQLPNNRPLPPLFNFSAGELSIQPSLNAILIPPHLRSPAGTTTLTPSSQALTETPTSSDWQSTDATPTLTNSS
Chain of recombinant human GSK3β (P49841 whole entry): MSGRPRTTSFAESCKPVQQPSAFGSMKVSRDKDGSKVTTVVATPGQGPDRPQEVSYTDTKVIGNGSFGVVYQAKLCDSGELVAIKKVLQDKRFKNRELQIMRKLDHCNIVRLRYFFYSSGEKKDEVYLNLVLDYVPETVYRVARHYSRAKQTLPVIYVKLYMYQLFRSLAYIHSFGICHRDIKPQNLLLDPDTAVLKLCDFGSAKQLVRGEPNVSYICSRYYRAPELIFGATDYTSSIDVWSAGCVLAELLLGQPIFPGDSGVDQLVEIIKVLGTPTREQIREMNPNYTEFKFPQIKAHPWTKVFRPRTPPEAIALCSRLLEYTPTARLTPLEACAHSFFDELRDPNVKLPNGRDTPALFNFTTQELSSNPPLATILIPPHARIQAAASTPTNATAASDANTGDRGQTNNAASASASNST

SMILES | EC50 [1] [nM] | Potency [2] [nM] | % of Cells [2] [%] | IC50 [3] [nM] | IC50 [4] [nM]
O=C1NCC(c2cn3c4c(cc(F)cc24)CN(C(=O)N2CCCCC2)CC3)=C1c1cnc2ccccn12 [Compound I-4] | 60 | 333.3 | 8.3 | 22 | 15.6
O=C1NCC(c2cnc3ccccn23)=C1c1cn2c3c(cc(F)cc13)CN(C(=O)N1CCCCC1)CC2 [Compound I-49] | < 10 | 333.3 | 5.5 | 8.3 | 8.2
